Active and inactive are the calls of the source. No cut-off for these calls is given here. *1 amine or outer side, *2 acyl side, *3 side chain or, on linkers, in order; H or OH if unused. Where a SMILES comes first, the peptide text is derived from it. [ ]: non-standard residue; d: D form. The star is where a group is joined. ξ: configuration not given here. Glutaryl(5-(14-O-Dox)) = COc1cccc2c1C(=O)c1c(O)c3c(c(O)c1C2=O)C[C@@](O)(C(=O)COC(=O)CCCC(=O)*)C[C@@H]3O[C@H]1C[C@H](N)[C@H](O)[C@H](C)O1; X7 = COc1cccc2c1C(=O)c1c(O)c3c(c(O)c1C2=O)C[C@@](O)(C(=O)CO)C[C@@H]3O[C@H]1C[C@H](NC(=O)CCCCCN2C(=O)CC(*)C2=O)[C@H](O)[C@H](C)O1; X5 = O=C(O)CCCCCCCCCCCCCCCCC(=O)NC(CCC(=O)NCCOCCOCC(=O)NCCOCCOCC(=O)NC(CCCCNC(=O)CCN1C(=O)CC(*)C1=O)C(=O)O)C(=O)O; X3 = CC(C)C(NC(=O)CCCCCN1C(=O)CC(*)C1=O)C(=O)NC(CCCNC(N)=O)C(=O)Nc1ccc(OCC2OC(n3ccc(N)nc3=O)C(F)(F)C2O)cc1; X6 = Nc1ccn(C2OC(COC(=O)CCCCCN3C(=O)CC(*)C3=O)C(O)C2(F)F)c(=O)n1; X2 = NC(=O)C[C@H](N[*:1])C(=O)C[C@@H](CC(=O)O)C(=O)[*:2]; X4 = Nc1ccn(C2OC(COC(=O)CCCC(=O)*)C(O)C2(F)F)c(=O)n1; C18 diacid = O=C(O)CCCCCCCCCCCCCCCCC(=O)*; ξγGlu = O=C(O)C(CCC(=O)[*:2])N[*:1]; AEEA = NCCOCCOCC(=O)O
Experiments:
MCF7 [1] = assay: Cytotoxicity against ROR1-negative human MCF7 cells assessed as decrease in cell viability incubated for 24 hrs by CCK-8 assay; type: functional, cell-based; conditions: MCF7, 24 h
[2] = biological target: T1, Inactive tyrosine-protein kinase transmembrane receptor ROR1 (Homo sapiens, UniProt Q01973); assay: Binding affinity to N-terminal His/GST-tagged recombinant human ROR1 (453 to 783 residues) extracted from baculovirus infected insect cells assessed as dissociation constant by SPR analysis
T1 sequence (Q01973 whole entry, the tested form may be a part): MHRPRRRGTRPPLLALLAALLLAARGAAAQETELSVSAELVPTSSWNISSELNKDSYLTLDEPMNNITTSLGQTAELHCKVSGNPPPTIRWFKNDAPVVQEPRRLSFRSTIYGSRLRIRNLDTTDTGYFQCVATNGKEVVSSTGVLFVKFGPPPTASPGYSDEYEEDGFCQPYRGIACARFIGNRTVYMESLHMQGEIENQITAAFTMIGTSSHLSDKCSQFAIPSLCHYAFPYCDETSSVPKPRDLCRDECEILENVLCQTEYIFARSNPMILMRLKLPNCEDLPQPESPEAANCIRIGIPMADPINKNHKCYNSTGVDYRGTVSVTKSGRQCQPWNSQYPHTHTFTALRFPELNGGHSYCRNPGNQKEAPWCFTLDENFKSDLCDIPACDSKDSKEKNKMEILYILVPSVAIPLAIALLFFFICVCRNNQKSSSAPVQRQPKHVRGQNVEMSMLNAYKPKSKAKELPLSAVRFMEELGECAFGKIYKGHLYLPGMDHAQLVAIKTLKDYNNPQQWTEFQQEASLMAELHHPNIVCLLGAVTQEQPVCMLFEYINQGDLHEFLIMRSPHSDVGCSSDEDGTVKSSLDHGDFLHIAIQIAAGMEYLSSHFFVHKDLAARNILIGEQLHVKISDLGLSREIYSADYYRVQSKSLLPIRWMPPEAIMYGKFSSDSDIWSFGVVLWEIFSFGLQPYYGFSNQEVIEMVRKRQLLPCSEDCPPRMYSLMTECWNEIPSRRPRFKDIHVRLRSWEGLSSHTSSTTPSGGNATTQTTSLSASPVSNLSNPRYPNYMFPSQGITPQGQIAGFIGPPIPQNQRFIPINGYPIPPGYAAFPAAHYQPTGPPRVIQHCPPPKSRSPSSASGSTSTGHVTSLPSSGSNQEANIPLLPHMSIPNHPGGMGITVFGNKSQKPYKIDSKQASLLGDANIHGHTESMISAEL

[3] = Cytotoxicity against human MCF-10A cells assessed as decrease in cell viability incubated for 24 hrs by CCK-8 assay; type: toxicity, cell-based
MDA-MB-231 = assay: Cytotoxicity against ROR1-positive human MDA-MB-231 cells assessed as decrease in cell viability incubated for 24 hrs by CCK-8 assay; type: functional, cell-based; conditions: MDA-MB-231, 24 h
SK-HEP1 = assay: Cytotoxicity against human SK-HEP1 cells assessed as decrease in cell viability incubated for 24 hrs by CCK-8 assay; type: functional, cell-based; conditions: SK-HEP1, 24 h
MCF7 [4] = assay: Binding affinity to ROR1 negative human MCF7 cells at 10 uM administered as FITC-labeled compound and measured after 30 mins by Hoechst 33342 staining based confocal fluorescence microscopic analysis; type: functional, cell-based
[5] = biological target: T1, Inactive tyrosine-protein kinase transmembrane receptor ROR1; assay: Binding affinity to ROR1 positive human MDA-MB-231 cells at 10 uM administered as FITC-labeled compound and measured after 30 mins by Hoechst 33342 staining based confocal fluorescence microscopic analysis; type: cell-based
Homo sapiens = species: Homo sapiens; assay: Binding affinity to CD16A (unknown origin) by SPR analysis

## CC[C@H](C)[C@H](NC(=O)[C@H](CC(=O)O)NC(=O)[C@H](CO)NC(=O)CNC(=O)[C@H](CSC1CC(=O)N(CCC(=O)NCCCCC(NC(=O)COCCOCCNC(=O)COCCOCCNC(=O)CCC(NC(=O)CCCCCCCCCCCCCCCCC(=O)O)C(=O)O)C(=O)O)C1=O)NC(=O)CNC(=O)[C@H](CCCCN)NC(=O)CCCC(=O)OCC1OC(n2ccc(N)nc2=O)C(F)(F)C1O)C(=O)N[C@@H](CC(N)=O)C(=O)N[C@@H](CC(=O)O)C(=O)N[C@@H](CCCNC(=N)N)C(=O)N[C@@H](CCC(N)=O)C(=O)N[C@H](C(=O)N1CCC[C@H]1C(=O)NCC(=O)N[C@@H](Cc1ccc(O)cc1)C(=O)N[C@@H](CO)C(=O)N[C@H](C(=O)N[C@@H](Cc1ccc(O)cc1)C(=O)N[C@@H](Cc1c[nH]c2ccccc12)C(=O)NCC(=O)N[C@@H](CC(=O)O)C(=O)N[C@@H](Cc1ccccc1)C(N)=O)[C@@H](C)O)[C@@H](C)CC (some centres not stated) (X4-KGC(X5)GSDINDRQIPGYSTYWGDF-NH2)
MCF7 [1]
  IC50: 17.8 µM
[2]
  Kd: 0.0398 µM
[3]
  IC50 at 24 h: 27.9 µM
MDA-MB-231
  IC50: 0.301 µM
SK-HEP1
  IC50: 7.54 µM

## CC[C@H](C)[C@H](NC(=O)[C@H](CC(=O)O)NC(=O)[C@H](CO)NC(=O)CNC(=O)[C@H](CSC1CC(=O)N(CCCCCC(=O)NC(C(=O)NC(CCCNC(N)=O)C(=O)Nc2ccc(OCC3OC(n4ccc(N)nc4=O)C(F)(F)C3O)cc2)C(C)C)C1=O)NC(=O)CNC(=O)[C@H](CCCCN)NC(=O)COCCOCCNC(=O)COCCOCCNC(=O)CCC(NC(=O)CCCCCCCCCCCCCCCCC(=O)O)C(=O)O)C(=O)N[C@@H](CC(N)=O)C(=O)C[C@@H](CC(=O)O)C(=O)N[C@@H](CCCNC(=N)N)C(=O)N[C@@H](CCC(N)=O)C(=O)N[C@H](C(=O)N1CCC[C@H]1C(=O)NCC(=O)N[C@@H](Cc1ccc(O)cc1)C(=O)N[C@@H](CO)C(=O)N[C@H](C(=O)N[C@@H](Cc1ccc(O)cc1)C(=O)N[C@@H](Cc1c[nH]c2ccccc12)C(=O)NCC(=O)N[C@@H](CC(=O)O)C(=O)N[C@@H](Cc1ccccc1)C(N)=O)[C@@H](C)O)[C@@H](C)CC (some centres not stated) ({C18 diacid-ξγGlu-AEEA-AEEA}-KGC(X3)GSDI[X2]RQIPGYSTYWGDF-NH2)
MCF7 [1]
  IC50: > 50 µM
[2]
  Kd: 0.0285 µM
[3]
  IC50 at 24 h: 14.6 µM
MDA-MB-231
  IC50: 6.79 µM
SK-HEP1
  IC50: 1.23 µM

## CC[C@H](C)[C@H](NC(=O)[C@H](CC(=O)O)NC(=O)[C@H](CO)NC(=O)CNC(=O)[C@H](CSC1CC(=O)N(CCCCCC(=O)OCC2OC(n3ccc(N)nc3=O)C(F)(F)C2O)C1=O)NC(=O)CNC(=O)[C@H](CCCCN)NC(=O)COCCOCCNC(=O)COCCOCCNC(=O)CCC(NC(=O)CCCCCCCCCCCCCCCCC(=O)O)C(=O)O)C(=O)N[C@@H](CC(N)=O)C(=O)N[C@@H](CC(=O)O)C(=O)N[C@@H](CCCNC(=N)N)C(=O)N[C@@H](CCC(N)=O)C(=O)N[C@H](C(=O)N1CCC[C@H]1C(=O)NCC(=O)N[C@@H](Cc1ccc(O)cc1)C(=O)N[C@@H](CO)C(=O)N[C@H](C(=O)N[C@@H](Cc1ccc(O)cc1)C(=O)N[C@@H](Cc1c[nH]c2ccccc12)C(=O)NCC(=O)N[C@@H](CC(=O)O)C(=O)N[C@@H](Cc1ccccc1)C(N)=O)[C@@H](C)O)[C@@H](C)CC (some centres not stated) ({C18 diacid-ξγGlu-AEEA-AEEA}-KGC(X6)GSDINDRQIPGYSTYWGDF-NH2)
MCF7 [1]
  IC50: 16.6 µM
[2]
  Kd: 0.124 µM
[3]
  IC50 at 24 h: 30.1 µM
MDA-MB-231
  IC50: 15.8 µM
SK-HEP1
  IC50: 26 µM

## CC[C@H](C)[C@H](NC(=O)[C@H](CC(=O)O)NC(=O)[C@H](CO)NC(=O)CNC(=O)[C@H](CSC1CC(=O)N(CCCCCC(=O)N[C@H]2C[C@H](O[C@H]3C[C@](O)(C(=O)CO)Cc4c(O)c5c(c(O)c43)C(=O)c3c(OC)cccc3C5=O)O[C@@H](C)[C@H]2O)C1=O)NC(=O)CNC(=O)[C@H](CCCCN)NC(=O)COCCOCCNC(=O)COCCOCCNC(=O)[C@H](CCC(=O)O)NC(=O)CCCCCCCCCCCCCCCCC(=O)O)C(=O)N[C@@H](CC(N)=O)C(=O)N[C@@H](CC(=O)O)C(=O)N[C@@H](CCCNC(=N)N)C(=O)N[C@@H](CCC(N)=O)C(=O)N[C@H](C(=O)N1CCC[C@H]1C(=O)NCC(=O)N[C@@H](Cc1ccc(O)cc1)C(=O)N[C@@H](CO)C(=O)N[C@H](C(=O)N[C@@H](Cc1ccc(O)cc1)C(=O)N[C@@H](Cc1c[nH]c2ccccc12)C(=O)NCC(=O)N[C@@H](CC(=O)O)C(=O)N[C@@H](Cc1ccccc1)C(N)=O)[C@@H](C)O)[C@@H](C)CC (some centres not stated) ({C18 diacid}-E[AEEA][AEEA]KGC(X7)GSDINDRQIPGYSTYWGDF-NH2)
MCF7 [1]
  IC50: 35.6 µM
[2]
  Kd: 0.152 µM
[3]
  IC50 at 24 h: 27.3 µM
MDA-MB-231
  IC50: 14.6 µM
SK-HEP1
  IC50: 20 µM

## CC[C@H](C)[C@H](NC(=O)[C@H](CC(=O)O)NC(=O)[C@H](CO)NC(=O)CNC(=O)[C@H](CSC1CC(=O)N(CCC(=O)NCCCCC(NC(=O)COCCOCCNC(=O)COCCOCCNC(=O)CCC(NC(=O)CCCCCCCCCCCCCCCCC(=O)O)C(=O)O)C(=O)O)C1=O)NC(=O)CNC(=O)[C@H](CCCCN)NC(=O)CCCC(=O)OCC(=O)[C@]1(O)Cc2c(O)c3c(c(O)c2[C@@H](O[C@H]2C[C@H](N)[C@H](O)[C@H](C)O2)C1)C(=O)c1c(OC)cccc1C3=O)C(=O)N[C@@H](CC(N)=O)C(=O)N[C@@H](CC(=O)O)C(=O)N[C@@H](CCCNC(=N)N)C(=O)N[C@@H](CCC(N)=O)C(=O)N[C@H](C(=O)N1CCC[C@H]1C(=O)NCC(=O)N[C@@H](Cc1ccc(O)cc1)C(=O)N[C@@H](CO)C(=O)N[C@H](C(=O)N[C@@H](Cc1ccc(O)cc1)C(=O)N[C@@H](Cc1c[nH]c2ccccc12)C(=O)NCC(=O)N[C@@H](CC(=O)O)C(=O)N[C@@H](Cc1ccccc1)C(N)=O)[C@@H](C)O)[C@@H](C)CC (some centres not stated) ({Glutaryl(5-(14-O-Dox))}-KGC(X5)GSDINDRQIPGYSTYWGDF-NH2)
MCF7 [1]
  IC50: 16.9 µM
[2]
  Kd: 0.0665 µM
[3]
  IC50 at 24 h: 10.1 µM
MDA-MB-231
  IC50: 2.83 µM
SK-HEP1
  IC50: 1.27 µM

## Nc1ccn([C@@H]2O[C@H](CO)[C@@H](O)C2(F)F)c(=O)n1 [GEMCITABINE]
MCF7 [1]
  IC50: 4.79 µM
[3]
  IC50 at 24 h: 3.23 µM
MDA-MB-231
  IC50: 1.78 µM
SK-HEP1
  IC50: 3.67 µM

## H-GYSTYWGDF-NH2
[2]
  Kd: 0.147 µM

## H-INSGPGYSTYYGDF-NH2
MCF7 [4]
  Activity: inactive
[2]
  Kd: 0.00121 µM
[5]
  Activity: Active
Homo sapiens
  Activity: Not active; Abnormal Binding Affinity Curves Observed

## H-INSGPSDINDRQIPGYSTYWGDF-NH2
[2]
  Kd: 0.261 µM

## H-INSGPSDINDYPI-NH2
[2]
  Kd: 0.0405 µM

## H-INSGPSDINDYPIPGYSTYYGDF-NH2
[2]
  Kd: 0.713 µM

## H-SDINDRQI-NH2
[2]
  Kd: 0.0265 µM

## H-SDINDYPIPGYSTYYGDF-NH2
MCF7 [4]
  Activity: inactive
[2]
  Kd: 0.00298 µM
[5]
  Activity: Active
Homo sapiens
  Activity: Not active; Abnormal Binding Affinity Curves Observed

— ChEMBL document CHEMBL6083182, “Development of Peptide Paratope Mimics Derived from the Anti-ROR1 Antibody and Long-Acting Peptide-Drug Conjugates for Targeted Cancer Therapy” (J Med Chem, 2024)
